Laboratory results from PMC11480411, “Mucosal sugars delineate pyrazine vs pyrazinone autoinducer signaling in Klebsiella oxytoca” (Nature Communications, 2024).
Where “and” joins values, the source holds several entries; their conditions need not be identical. Equal values may be shown once.

What was measured:
∆pyr K. oxytoca = test: RNA-seq of compound-supplemented ∆pyr K. oxytoca; format: cell-based, Klebsiella oxytoca ATCC 8724; details: 10 µM
Procedure: A ∆pyr K. oxytoca glycerol stock was streaked onto an LB-Agar plate supplemented with spectinomycin (50 µg/mL) and incubated aerobically at 30°C for 24 h in a stationary incubator. Single colonies were grown for 24 h aerobically in 5 mL of M9 minimal medium supplemented with 5 g/L casamino acids and 0.4% D-galactose at 30 °C and 250 rpm. Each ∆pyr K. oxytoca overnight culture was diluted 1:1000 into fresh medium (5 mL) and incubated aerobically at 30 °C and 250 rpm to mid-exponential growth (OD600 = 0.8). These conditions abrogated both detectable pyrazine and pyrazinone production. At this point, 10 µM of compound in DMSO, were added to the cultures; an equal volume of DMSO was added to cultures without compound as a solvent vehicle control. The cultures were incubated under aerobic conditions with the compounds for one hour at 30 °C and at 250 rpm. After incubation, the cultures were centrifuged, the supernatants were decanted, and the cell pellets were quickly resuspended in 5 mL of Bacterial RNAProtect (Qiagen). The samples were centrifuged again, and the pellets were frozen on dry ice and stored at −80 °C until RNA extraction. The processed cell pellets were thawed on ice and resuspended in 200 µL of lysis buffer (10 mM Tris, 1 mM EDTA, 5 mg/mL lysozyme, 12.5 µg/mL proteinase K [pH 8.0]) and incubated at room temperature for 10 min. The RNA was extracted via the Qiagen RNeasy Mini kit, treated with TURBO DNase in a total volume of 100 µL at room temperature for 30 min, and extracted again using an RNeasy Mini kit. RNA-seq analysis was conducted by the Yale Center for Genome Analysis. Sequences were aligned to the K. oxytoca ATCC 8724 genome (NC_016612.1). Differential expression analysis was performed through DESeq2 and pathway enrichment analysis was performed through the Funage-Pro web-based platform.

HRH1 = target: T1, HRH1 (Homo sapiens, UniProt P35367); test: PRESTO-Tango GPCR screen and dose-response; format: cell-based; details: for HRH1 dose-response raw reporter signal (Fig. 5b source data): replicate wells
T1 construct: expressed in transfected cells; host or cells: HTLA cells (HEK293 line stably expressing β-arrestin-TEV and tTA-Luciferase)
T1 sequence (P35367 whole entry): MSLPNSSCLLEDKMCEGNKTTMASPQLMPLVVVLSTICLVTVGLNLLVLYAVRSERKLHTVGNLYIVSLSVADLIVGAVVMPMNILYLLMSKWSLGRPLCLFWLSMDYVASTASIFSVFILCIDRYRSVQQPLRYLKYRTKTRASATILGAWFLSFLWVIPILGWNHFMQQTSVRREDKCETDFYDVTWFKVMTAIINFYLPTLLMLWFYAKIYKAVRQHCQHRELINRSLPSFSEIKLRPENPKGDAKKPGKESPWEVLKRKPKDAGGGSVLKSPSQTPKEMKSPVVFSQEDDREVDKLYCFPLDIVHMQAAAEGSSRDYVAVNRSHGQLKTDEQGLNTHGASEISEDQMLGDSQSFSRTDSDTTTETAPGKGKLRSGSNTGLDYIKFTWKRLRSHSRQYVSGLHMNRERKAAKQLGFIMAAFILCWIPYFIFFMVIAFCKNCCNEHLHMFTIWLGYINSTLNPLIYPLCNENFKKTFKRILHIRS
Procedure: (§1) The PRESTO-Tango analyses were performed as previously published. Briefly, HTLA cells, a HEK293 cell line that stably expresses β-arrestin-TEV and tTA-Luciferase (a kind gift from Gilad Barnea, Brown University), were plated in 96-well tissue culture plates (Eppendorf) in DMEM containing 10% FBS and 1% Penicillin/Streptomycin. One day after plating (after reaching approximately 90% confluence), 200 ng per well GPCR-Tango plasmids[37] in 20 μL DMEM were individually mixed with 400 ng polyethylenimine (Polysciences) in an equal volume of DMEM and incubated for 20 min at room temperature before adding the transfection mixture to the HTLA cells. 16-24 h after transfection, medium was replaced with 180 μL fresh DMEM containing 1% Penicillin/Streptomycin and 10 mM HEPES and 20 μL of 3 or 3-Homo to reach a final concentration of 100 μM. Supernatants were aspirated 20 h after stimulation and 50 μl per well of Bright-Glo solution (Promega) diluted 20-fold with PBS containing 20 mM HEPES was added into each well. After 15 min incubation at room temperature, luminescence was quantified using a Spectramax i3x microplate reader (Molecular Devices). Activation fold for each sample was calculated by dividing relative luminescence units (RLU) for each condition by RLUs from PBS control. Dose response curves of each chemical were performed in a similar way with varying the ligand concentration from 10^−4 M to 10^−15 M.

HRH2 = target: T2, HRH2 (Homo sapiens, UniProt P25021); test: PRESTO-Tango GPCR screen and dose-response; format: cell-based; details: for HRH2 dose-response raw reporter signal (Fig. 5b source data): replicate wells
T2 construct: expressed in transfected cells; host or cells: HTLA cells (HEK293 line stably expressing β-arrestin-TEV and tTA-Luciferase)
T2 sequence (P25021 whole entry): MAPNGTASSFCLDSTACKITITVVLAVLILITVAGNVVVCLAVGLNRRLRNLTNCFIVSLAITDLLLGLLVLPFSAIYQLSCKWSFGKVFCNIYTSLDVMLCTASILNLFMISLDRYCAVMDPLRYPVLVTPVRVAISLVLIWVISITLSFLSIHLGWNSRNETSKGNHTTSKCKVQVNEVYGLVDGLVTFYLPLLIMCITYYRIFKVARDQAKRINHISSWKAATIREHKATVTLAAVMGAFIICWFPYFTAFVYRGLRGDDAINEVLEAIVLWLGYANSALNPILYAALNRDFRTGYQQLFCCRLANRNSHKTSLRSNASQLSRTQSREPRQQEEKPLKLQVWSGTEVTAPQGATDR
Procedure: as §1

HRH3 = target: T3, HRH3 (Homo sapiens, UniProt Q9Y5N1); test: PRESTO-Tango GPCR screen and dose-response; format: cell-based; details: for HRH3 dose-response raw reporter signal (Fig. 5b source data): replicate wells
T3 construct: expressed in transfected cells; host or cells: HTLA cells (HEK293 line stably expressing β-arrestin-TEV and tTA-Luciferase)
T3 sequence (Q9Y5N1 whole entry): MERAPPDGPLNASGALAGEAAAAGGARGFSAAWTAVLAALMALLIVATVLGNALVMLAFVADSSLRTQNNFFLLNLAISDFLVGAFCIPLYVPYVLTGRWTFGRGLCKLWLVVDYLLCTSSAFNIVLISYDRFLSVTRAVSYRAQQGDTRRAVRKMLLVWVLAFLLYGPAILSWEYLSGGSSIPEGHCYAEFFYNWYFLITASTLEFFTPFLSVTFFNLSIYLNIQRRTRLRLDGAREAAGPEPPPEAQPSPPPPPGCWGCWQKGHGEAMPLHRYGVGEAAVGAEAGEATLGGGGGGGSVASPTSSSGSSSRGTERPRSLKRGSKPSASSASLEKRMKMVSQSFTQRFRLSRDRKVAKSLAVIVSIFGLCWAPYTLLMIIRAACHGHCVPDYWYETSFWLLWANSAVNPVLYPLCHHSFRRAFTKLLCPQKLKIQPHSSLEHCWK
Procedure: as §1

[1] = target: T4, histamine receptor H4 (HRH4) (Homo sapiens, UniProt Q9H3N8); test: PRESTO-Tango GPCR screen and dose-response; format: cell-based; details: for HRH4 dose-response raw reporter signal (Fig. 5b source data): replicate wells
T4 construct: expressed in transfected cells; host or cells: HTLA cells (HEK293 line stably expressing β-arrestin-TEV and tTA-Luciferase)
T4 sequence (Q9H3N8 whole entry): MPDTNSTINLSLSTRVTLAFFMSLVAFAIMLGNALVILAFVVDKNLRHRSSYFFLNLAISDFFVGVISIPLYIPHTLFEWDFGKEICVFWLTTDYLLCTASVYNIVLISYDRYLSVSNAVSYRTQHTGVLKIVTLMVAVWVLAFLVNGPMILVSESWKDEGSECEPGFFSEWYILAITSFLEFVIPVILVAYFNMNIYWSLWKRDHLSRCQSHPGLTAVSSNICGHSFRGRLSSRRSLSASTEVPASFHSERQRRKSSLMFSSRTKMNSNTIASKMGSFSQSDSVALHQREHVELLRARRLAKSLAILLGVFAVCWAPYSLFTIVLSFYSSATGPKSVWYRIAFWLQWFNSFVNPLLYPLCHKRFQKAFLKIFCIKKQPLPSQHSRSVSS
Procedure: as §1

Compound: Cc1cnc(CCC(=O)O)c(Cc2ccccc2)n1 [compound 7]
- number of differentially regulated genes (∆pyr K. oxytoca; one hour, vs DMSO, Padj < 0.05, abs(log2FC) > 1): 644 genes
- effect on enterobactin BGC transcription (∆pyr K. oxytoca; vs DMSO control, RNA-seq): significantly enhanced transcription of the enterobactin BGC
- KEGG pathway enrichment neglogP: Citrate cycle, downregulated (∆pyr K. oxytoca; Funage-Pro, 7 downreg): 3.041
- KEGG pathway enrichment neglogP: Glycerolipid metabolism, downregulated (∆pyr K. oxytoca; Funage-Pro, 7 downreg): 4.481
- KEGG pathway enrichment neglogP: Nitrogen metabolism, downregulated (∆pyr K. oxytoca; Funage-Pro, 7 downreg): 3.06
- KEGG pathway enrichment neglogP: ABC Transporters, upregulated (∆pyr K. oxytoca; Funage-Pro, 7 upreg): 4.602
- KEGG pathway enrichment neglogP: Biosynthesis of siderophore group nonribosomal peptides, upregulated (∆pyr K. oxytoca; Funage-Pro, 7 upreg): 5.301
- KEGG pathway enrichment neglogP: Oxidative phosphorylation, upregulated (∆pyr K. oxytoca; Funage-Pro, 7 upreg): 3.252
- KEGG pathway enrichment neglogP: Phenylalanine Metabolism, upregulated (∆pyr K. oxytoca; Funage-Pro, 7 upreg): 4.301
- effect on cytochrome-related operons transcription (∆pyr K. oxytoca; RNA-seq, pyrazine 7 compared with pyrazinone 3): prominently upregulated
- HRH1 dose-response raw reporter signal (Fig. 5b source data) (HRH1; Log(10)Conc (M) -4): 51351 and 49812 and 56357
- HRH1 dose-response raw reporter signal (Fig. 5b source data) (HRH1; Log(10)Conc (M) -5): 52012 and 52029 and 55110
- HRH1 dose-response raw reporter signal (Fig. 5b source data) (HRH1; Log(10)Conc (M) -6): 48657 and 55248 and 53819
- HRH1 dose-response raw reporter signal (Fig. 5b source data) (HRH1; Log(10)Conc (M) -7): 47504 and 53144 and 54812
- HRH1 dose-response raw reporter signal (Fig. 5b source data) (HRH1; Log(10)Conc (M) -8): 48011 and 51622 and 55024
- HRH1 dose-response raw reporter signal (Fig. 5b source data) (HRH1; Log(10)Conc (M) -9): 49795 and 49308 and 52115
- HRH1 dose-response raw reporter signal (Fig. 5b source data) (HRH1; Log(10)Conc (M) -10): 46794 and 49653 and 52654
- HRH1 dose-response raw reporter signal (Fig. 5b source data) (HRH1; Log(10)Conc (M) -11): 47026 and 50225 and 51761
- HRH1 dose-response raw reporter signal (Fig. 5b source data) (HRH1; Log(10)Conc (M) -12): 51855 and 50992 and 52000
- HRH1 dose-response raw reporter signal (Fig. 5b source data) (HRH1; Log(10)Conc (M) -13): 49320 and 51552 and 55349
- HRH1 dose-response raw reporter signal (Fig. 5b source data) (HRH1; Log(10)Conc (M) -14): 48035 and 52604 and 51817
- HRH1 dose-response raw reporter signal (Fig. 5b source data) (HRH1; Log(10)Conc (M) -15): 39264 and 44810 and 48161
- activity towards HRH1 (HRH1; PRESTO-Tango dose-response): no activity
- HRH2 dose-response raw reporter signal (Fig. 5b source data) (HRH2; Log(10)Conc (M) -4): 62 and 50 and 47
- HRH2 dose-response raw reporter signal (Fig. 5b source data) (HRH2; Log(10)Conc (M) -5): 47 and 50 and 83
- HRH2 dose-response raw reporter signal (Fig. 5b source data) (HRH2; Log(10)Conc (M) -6): 18 and 53 and 71
- HRH2 dose-response raw reporter signal (Fig. 5b source data) (HRH2; Log(10)Conc (M) -7): 50 (2×) and 74
- HRH2 dose-response raw reporter signal (Fig. 5b source data) (HRH2; Log(10)Conc (M) -8): 44 and 35 and 56
- HRH2 dose-response raw reporter signal (Fig. 5b source data) (HRH2; Log(10)Conc (M) -9): 97 and 65 and 41
- HRH2 dose-response raw reporter signal (Fig. 5b source data) (HRH2; Log(10)Conc (M) -10): 56 and 32 and 21
- HRH2 dose-response raw reporter signal (Fig. 5b source data) (HRH2; Log(10)Conc (M) -11): 18 and 53 and 44
- HRH2 dose-response raw reporter signal (Fig. 5b source data) (HRH2; Log(10)Conc (M) -12): 32 and 65 and 68
- HRH2 dose-response raw reporter signal (Fig. 5b source data) (HRH2; Log(10)Conc (M) -13): 35 and 62 and 97
- HRH2 dose-response raw reporter signal (Fig. 5b source data) (HRH2; Log(10)Conc (M) -14): 32 and 47 and 68
- HRH2 dose-response raw reporter signal (Fig. 5b source data) (HRH2; Log(10)Conc (M) -15): 77 and 53 and 71
- activity towards HRH2 (HRH2; PRESTO-Tango dose-response): no activity
- HRH3 dose-response raw reporter signal (Fig. 5b source data) (HRH3; Log(10)Conc (M) -4): 106 and 112 and 159
- HRH3 dose-response raw reporter signal (Fig. 5b source data) (HRH3; Log(10)Conc (M) -5): 124 and 133 and 80
- HRH3 dose-response raw reporter signal (Fig. 5b source data) (HRH3; Log(10)Conc (M) -6): 56 and 106 and 124
- HRH3 dose-response raw reporter signal (Fig. 5b source data) (HRH3; Log(10)Conc (M) -7): 83 and 106 and 180
- HRH3 dose-response raw reporter signal (Fig. 5b source data) (HRH3; Log(10)Conc (M) -8): 112 and 142 and 106
- HRH3 dose-response raw reporter signal (Fig. 5b source data) (HRH3; Log(10)Conc (M) -9): 97 and 112 and 139
- HRH3 dose-response raw reporter signal (Fig. 5b source data) (HRH3; Log(10)Conc (M) -10): 139 and 97 and 159
- HRH3 dose-response raw reporter signal (Fig. 5b source data) (HRH3; Log(10)Conc (M) -11): 91 and 139 and 136
- HRH3 dose-response raw reporter signal (Fig. 5b source data) (HRH3; Log(10)Conc (M) -12): 118 and 124 and 203
- HRH3 dose-response raw reporter signal (Fig. 5b source data) (HRH3; Log(10)Conc (M) -13): 59 and 109 and 130
- HRH3 dose-response raw reporter signal (Fig. 5b source data) (HRH3; Log(10)Conc (M) -14): 85 and 142 and 124
- HRH3 dose-response raw reporter signal (Fig. 5b source data) (HRH3; Log(10)Conc (M) -15): 53 and 91 and 112
- activity towards HRH3 (HRH3; PRESTO-Tango dose-response): no activity
- HRH4 dose-response raw reporter signal (Fig. 5b source data) ([1]; Log(10)Conc (M) -5): 245 and 339
- HRH4 dose-response raw reporter signal (Fig. 5b source data) ([1]; Log(10)Conc (M) -6): 295 and 333
- HRH4 dose-response raw reporter signal (Fig. 5b source data) ([1]; Log(10)Conc (M) -7): 242 and 304
- HRH4 dose-response raw reporter signal (Fig. 5b source data) ([1]; Log(10)Conc (M) -8): 271 and 336
- HRH4 dose-response raw reporter signal (Fig. 5b source data) ([1]; Log(10)Conc (M) -9): 425 and 324
- HRH4 dose-response raw reporter signal (Fig. 5b source data) ([1]; Log(10)Conc (M) -10): 307 and 401
- HRH4 dose-response raw reporter signal (Fig. 5b source data) ([1]; Log(10)Conc (M) -11): 312 and 366
- HRH4 dose-response raw reporter signal (Fig. 5b source data) ([1]; Log(10)Conc (M) -12): 242 and 292
- HRH4 dose-response raw reporter signal (Fig. 5b source data) ([1]; Log(10)Conc (M) -13): 256 and 383
- HRH4 dose-response raw reporter signal (Fig. 5b source data) ([1]; Log(10)Conc (M) -14): 271 and 304
- HRH4 dose-response raw reporter signal (Fig. 5b source data) ([1]; Log(10)Conc (M) -15): 286 and 230
- activity towards HRH4 ([1]; PRESTO-Tango dose-response): no activity
